Drawing on patent US4175081A, “5-Substituted thiadiazole ureas” (priority 1977, dated 1979), this text covers pest or weed control for 4 compounds.

Assay [1] relates to Crabgrass (CG). Nature of the assay: Post-emergence herbicide test. It counts as in vivo, Digitaria sanquinalis. Particulars: Digitaria sanguinalis, post-emergence, 336 h, two weeks after treatment; for pest or weed control: 2 lb/acre; for pest or weed control at 4483.4 g/ha: 4 lb/acre. On the procedure: (§1) Crabgrass (CG)--Digitaria sanquinalis
(§2) All crop and weed species were planted individually in 3' plastic pots containing potting soil. Four seeds each of corn, cotton, and snapbeans were seeded to a depth equal to the diameter of the seed. All other species were surface seeded and sprinkled with screened soil in an amount sufficient to cover the seed. Immediately after planting, all pots were watered by sub-irrigation in greenhouse trays. Pots for the pre-emergence phase were seeded one day before treatment.
(§3) Planting dates for the post-emergence phase were varied so that all seedlings would reach the desired stage of development simultaneously. The proper stage of seedling development for treatment in the post-emergence phase is as follows:
(§4) Spray hood constants required to deliver the above volume are as follows:
(§5) Formulations for spray applications were prepared in 50 ml volumes with the following three components: […]
(§6) Spray applications were made in a hood containing a removable belt and fixed spray nozzle. For passage through the spray hood, one pot of each specie (pre-emergence phase) was placed on the rear half of the flat. Treatments were removed to the greenhouse after spraying. Watering during the observation period was done only by sub-irrigation.
(§7) Two weeks after treatment, pre- and post-emergence injury or control was visually rated, and the results were as shown in the following tables. Pre-emergence data are provided in TABLE III and post-emergence data are provided in TABLE IV, for compounds having the formula illustrated in TABLE I. Correspondingly, pre-emergence and post-emergence data, respectively, are set forth in TABLES V AND VI, for compounds having the formula illustrated in TABLE II.

The subject of assay [2] is Turnip (TP). Nature of the assay: Post-emergence herbicide test. It counts as in vivo, Brassica sp. Particulars: Brassica rapa, post-emergence, 336 h, two weeks after treatment; for pest or weed control at 2241.7 g/ha: 2 lb/acre; for pest or weed control at 4483.4 g/ha: 4 lb/acre. The protocol: (§8) Turnip (TP)--Brassica sp.
as §2, §3
Pigweed and turnips: 1 or 2 true leaves above visible cotyledons.
as §4, §5, §6, §7

Assay [3] deals with Cotton (CT). Kind of assay: Post-emergence herbicide test. It counts as in vivo, Gossypium hirsutum var. DPL smooth leaf. Conditions: Gossypium hirsutum, post-emergence, 336 h, two weeks after treatment; for pest or weed control at 2241.7 g/ha: 2 lb/acre; for pest or weed control at 4483.4 g/ha: 4 lb/acre. The protocol:
(§9) Cotton (CT)--Gossypium hirsutum var. DPL smooth leaf
as §2, §3
Cotton: first true leaf 1' in length; expanded cotyledons.
as §4
(§10) Formulations for spray applications were prepared in 50 ml volumes with the following three components:
(§11) Formulations for the 4 lbs/acre rate were prepared by adjusting the amount of active ingredient accordingly.
as §6, §7

Assay [4] relates to Bean (BN). Kind of assay: Post-emergence herbicide test. The format is in vivo, Phaseolus vulgaris var. Black Valentine. Conditions: Phaseolus vulgaris, post-emergence, 336 h, two weeks after treatment; for pest or weed control at 2241.7 g/ha: 2 lb/acre; for pest or weed control at 4483.4 g/ha: 4 lb/acre. On the procedure: (§12) Bean (BN)--Phaseolus vulgaris var. Black Valentine
as §2, §3
Beans: primary leaves expanded, growing point at primary leaf nodes.
as §4, §10, §11, §6, §7

For assay [5], the system named is Cotton (CT). Kind of assay: Pre-emergence herbicide test. The format is in vivo, Gossypium hirsutum var. DPL smooth leaf. Particulars: Gossypium hirsutum, 336 h, two weeks after treatment; for pest or weed control at 2241.7 g/ha: 2 lb/acre; for pest or weed control at 4483.4 g/ha: 4 lb/acre. The protocol: as §9, §2
(§13) Compounds were tested at rates of application equivalent to 8 lbs. of actual compound per acre in a spray volume of 38 gallons per acre. Spray hood constants required to deliver the above volume are as follows:
as §10, §11, §6, §7

For assay [6], the system named is Barnyard grass (BG). Kind of assay: Pre-emergence herbicide test. The format is in vivo. Conditions: Echinochloa crus-galli, 336 h, two weeks after treatment; for pest or weed control at 2241.7 g/ha: 2 lb/acre; for pest or weed control at 4483.4 g/ha: 4 lb/acre. On the procedure: (§14) Barnyard grass (BG)--Echinochloa crus-galli
as §2, §13, §10, §11, §6, §7

For assay [7], the system named is Johnson grass (JG). Kind of assay: Post-emergence herbicide test. The format is in vivo, Sorgum helepense. Particulars: Sorghum halepense, 336 h, two weeks after treatment; for pest or weed control: 2 lb/acre; for pest or weed control at 4483.4 g/ha: 4 lb/acre. On the procedure: (§15) Johnson grass (JG)--Sorgum helepense
as §2, §3, §13, §10, §11, §6, §7

For assay [8], the system named is Crabgrass (CG). Kind of assay: Pre-emergence herbicide test. The format is in vivo, Digitaria sanquinalis. Conditions: Digitaria sanguinalis, pre-emergence, 336 h, two weeks after treatment; for pest or weed control: 2 lb/acre; for pest or weed control at 4483.4 g/ha: 4 lb/acre. On the procedure: as §1, §2, §4, §5, §6, §7
The test system of assay [9] is Bean (BN). Nature of the assay: Pre-emergence herbicide test. The format is in vivo, Phaseolus vulgaris var. Black Valentine. Conditions: Phaseolus vulgaris, 336 h, two weeks after treatment; for pest or weed control at 2241.7 g/ha: 2 lb/acre; for pest or weed control at 4483.4 g/ha: 4 lb/acre. The protocol:
as §12, §2, §13, §10, §11, §6, §7

Assay [10] has as its system Corn (CN). Nature of the assay: Post-emergence herbicide test. The format is in vivo. Particulars: Zea mays, 336 h, two weeks after treatment; for pest or weed control: 2 lb/acre; for pest or weed control at 4483.4 g/ha: 4 lb/acre. On the procedure:
as §2, §3, §13, §10, §11, §6, §7

In assay [11] the test system is Barnyard grass (BG). Nature of the assay: Post-emergence herbicide test. It counts as in vivo. Particulars: Echinochloa crus-galli, 336 h, two weeks after treatment; for pest or weed control at 2241.7 g/ha: 2 lb/acre; for pest or weed control at 4483.4 g/ha: 4 lb/acre. The protocol: as §14, §2, §3, §13, §10, §11, §6, §7
The test system of assay [12] is Turnip (TP). Nature of the assay: Pre-emergence herbicide test. Particulars: Brassica rapa, pre-emergence, 336 h, two weeks after treatment; for pest or weed control at 2241.7 g/ha: 2 lb/acre; for pest or weed control at 4483.4 g/ha: 4 lb/acre. The format is in vivo, Brassica sp. The protocol:
as §8, §2, §4, §5, §6, §7

The test system of assay [13] is Johnson grass (JG). Nature of the assay: Pre-emergence herbicide test. The format is in vivo, Sorgum helepense. Particulars: Sorghum halepense, 336 h, two weeks after treatment; for pest or weed control at 2241.7 g/ha: 2 lb/acre; for pest or weed control at 4483.4 g/ha: 4 lb/acre. The protocol: as §15, §2, §13, §10, §11, §6, §7
The test system of assay [14] is Corn (CN). Nature of the assay: Pre-emergence herbicide test. The format is in vivo. Conditions: Zea mays, 336 h, two weeks after treatment; for pest or weed control at 2241.7 g/ha: 2 lb/acre. The protocol: as §2, §13, §10, §11, §6, §7

As for `C=CCSc1nnc(NC(=O)NC)s1` [Example 39, 1-Methyl-3-[5-Allythio-2-(1,3,4-Thiadiazolyl)] Urea], the pest or weed control amounted to 80% in the assay with Crabgrass (CG) [1], 80% in the assay with Johnson grass (JG) [7], 60% in the assay with Crabgrass (CG) [8] and 50% in the assay on Corn (CN) [10]. Also, the pest or weed control at 2241.7 g/ha with Turnip (TP) [2] came out at 80%; in the assay on Cotton (CT) [3], 100%; in the assay on Bean (BN) [4], 100%; in the assay with Cotton (CT) [5], 50%; with Barnyard grass (BG) [6] it was 50%; with Bean (BN) [9], 40%. Further, the pest or weed control at 2241.7 g/ha with Barnyard grass (BG) [11] worked out at 90%; with Turnip (TP) [12], 70%; with Johnson grass (JG) [13] it was 30%; in the assay on Corn (CN) [14], 10%.

As for `CNC(=O)Nc1nnc(SC(C)C)s1` [Example 40, 1-Methyl-3-[5-Isopropylthio-2-(1,3,4-Thiadiazolyl)]Urea], the pest or weed control at 4483.4 g/ha in the assay with Crabgrass (CG) [1] worked out at 90%; in the assay on Turnip (TP) [2], 100%; with Cotton (CT) [3], 100%; with Bean (BN) [4], 100%; in the assay with Cotton (CT) [5], 30%; in the assay with Barnyard grass (BG) [6] it was 40%. For the same compound, the pest or weed control at 4483.4 g/ha in the assay on Johnson grass (JG) [7] worked out at 70%; in the assay on Crabgrass (CG) [8], 50%; in the assay on Bean (BN) [9], 10%; in the assay with Corn (CN) [10], 40%; in the assay with Barnyard grass (BG) [11] it was 50%; with Turnip (TP) [12] it was 100%. This compound also registered a pest or weed control at 4483.4 g/ha in the assay with Johnson grass (JG) [13] of 30%.

Turning to `CCCSc1nnc(NC(=O)NC)s1` [Example 41, 1-Methyl-3-[5-n-Propylthio-2-(1,3,4-Thiadiazolyl)]Urea], the pest or weed control with Crabgrass (CG) [1] was determined as 100%; in the assay on Johnson grass (JG) [7], 90%; in the assay on Crabgrass (CG) [8], 90%; in the assay on Corn (CN) [10] it was 100%. Moreover, the pest or weed control at 2241.7 g/ha was found to be 70% with Turnip (TP) [2]; 100% in the assay on Cotton (CT) [3]; 70% in the assay on Bean (BN) [4]; 50% in the assay on Cotton (CT) [5]; 50% in the assay with Barnyard grass (BG) [6]; 30% in the assay with Bean (BN) [9]. For the same compound, the pest or weed control at 2241.7 g/ha in the assay on Barnyard grass (BG) [11] was 90%; with Turnip (TP) [12], 60%; in the assay on Johnson grass (JG) [13], 70%; in the assay on Corn (CN) [14] it was 10%.

Turning to `CCCS(=O)(=O)c1nnc(NC(=O)NC)s1` [Example 62], the pest or weed control was determined as 100% with Crabgrass (CG) [1], 90% in the assay with Crabgrass (CG) [8] and 100% in the assay with Corn (CN) [10]. Further, the pest or weed control at 4483.4 g/ha stood at 100% in the assay on Crabgrass (CG) [1]; 100% in the assay with Turnip (TP) [2]; 100% with Cotton (CT) [3]; 100% in the assay with Bean (BN) [4]; 100% in the assay with Cotton (CT) [5]; 60% in the assay on Barnyard grass (BG) [6]. Moreover, the pest or weed control at 4483.4 g/ha in the assay on Johnson grass (JG) [7] was determined as 100%; in the assay with Crabgrass (CG) [8] it was 90%; with Bean (BN) [9], 50%; with Corn (CN) [10] it was 50%; in the assay on Barnyard grass (BG) [11], 80%; with Turnip (TP) [12], 40%. Further, the pest or weed control at 4483.4 g/ha with Johnson grass (JG) [13] was 40%; in the assay on Corn (CN) [14] (4 lb/acre), 0%. Further, the pest or weed control at 2241.7 g/ha in the assay with Turnip (TP) [2] was 100%; in the assay on Cotton (CT) [3], 90%; in the assay with Bean (BN) [4] it was 100%; in the assay on Cotton (CT) [5], 100%; in the assay on Barnyard grass (BG) [6] it was 60%; in the assay with Bean (BN) [9], 60%. In addition, the pest or weed control at 2241.7 g/ha worked out at 80% in the assay on Turnip (TP) [12], 40% in the assay with Johnson grass (JG) [13] and 0% with Corn (CN) [14].
